Results as given in patent US6660501B2, “Production of proteins by cell culture” (Lonza Group, AG, priority 1986, dated 2003).

Test system: NT1/19 cells
Test: Effect of varying alkanoates on antibody production from hybridoma cells
Assay type: cell-based
Settings: for AVERAGE DATA FROM EXP. #1 & #2: average of relative productivity, control 100.00; for PRODUCTIVITY EXP. #1: control 3.30; for PRODUCTIVITY EXP #2: control 2.39
Method: The IgM secreting mouse hybridoma cell line NB1/19 was grown in suspension culture in Dulbeccos Modified Eagles Minimum (DMEM) serum-free medium containing albumin, insulin, transferrin, gentamycin and other additives as required to cultivate cells in suspension culture. The NB1/19 cell line produces a mouse monoclonal antibody having specificity for an antigenic determinant of human B-type blood cells. The preparation of this call line is described in detail in the specification of British Patent GB 2097425B. It will be appreciated, however, that other hybridoma cell lines may be used in place of this particular cell line as appropriate in this and other examples.
The cells were grown to a viable cell density of 1.0-1.5×10^6 cells/ml. Viable cell density was determined by counting the number of cells which exclude trypan blue, a staining agent. A sample of the suspension culture was diluted in a serum-free medium to a density of about 1.3×10^5 cells/ml. Aliquots of 50 ml in volume were dispensed into shake flasks and sodium butyrate added at concentrations of 0.1 mM, 0.3 mM, 0.5 mM and 1.0 mM.
The shake flasks were gassed with 5% CO2-95% air, and sealed and incubated with shaking at 37° C. for up to 207 hours. (Table 1). Samples ([…]) were removed from the culture by pipette. 100 μl was used to determine viable cell count and the reminder centrifuged at 300×g for five minutes. Supernatants were stored at −20° C. prior to antibody determination by enzyme linked immunosorbent assay (ELISA).
NT1/19 cells were cultured as in Example 1. Varying straight chain sodium alkanoate salts (propionate, butyrate, bentanoate or hexanoate) were added to the inoculum at the concentrations indicated in Table 5.

Row | Structure (SMILES) | AVERAGE DATA FROM EXP. #1 & #2 (0.50 mM alkanoate) | PRODUCTIVITY EXP. #1 (0.50 mM alkanoate) | AVERAGE DATA FROM EXP. #1 & #2 (1.00 mM alkanoate) | PRODUCTIVITY EXP #2 (1.00 mM alkanoate) | PRODUCTIVITY EXP. #1 (1.00 mM alkanoate) | RELATIVE PRODUCTIVITY EXP. #1 (0.50 mM alkanoate) | RELATIVE PRODUCTIVITY EXP. #1 (1.00 mM alkanoate) | RELATIVE PRODUCTIVITY EXP. #2 (1.00 mM alkanoate)
1 | CCC(=O)O [PROPIONATE, propionate] | 172.73 | 5.70 ug antibody per 10^5 cells | 210.07 | 4.95 ug antibody per 10^5 cells | 7.03 ug antibody per 10^5 cells |  |  | 
2 | CCCCC(=O)[O-].[Na+] [PENANOATE, bentanoate] | 163.64 | 5.40 ug antibody per 10^5 cells | 218.09 | 5.50 ug antibody per 10^5 cells | 6.80 ug antibody per 10^5 cells | 163.6 % of control | 206.1 % of control | 230.1 % of control
